According to patent US10648917B2, “Luminescent compositions and applications thereof” (THE PENN STATE RESEARCH FOUNDATION, priority 2015, dated 2020):

Assay: Fluorescence spectra, absorbance and quantum yield (spectrofluorometer, integration sphere)
Format: physicochemical
Details: CFD dyes
Protocol: Fluorescence spectra were recorded by a Horiba FluoroMax-4 spectrofluorometer. All polymer and small molecule samples were measured at a concentration of 2% w/w in 1,4-dioxane or DI water and a slit size of 1 nm by 1 nm unless otherwise specified. Quantum yields were also determined on the same spectrofluorometer by using a Quantum-φ integration sphere at the same concentration and slit size with the blank solvent as the reference. ^1H-NMR, ^13C-NMR were performed on a JNM ECS 300 spectrometer using DMSO-d6 or D2O as solvents. Attenuated total reflection Fourier transform infrared (ATR-FTIR) spectra were collected with a Bruker V70 spectrometer using BPLP films. A Shimadzu HPLC-MS system with a Phenomenex Kinetex 2.6u XB-C18 100 mm×2.9 mm column, a SPD M20A PDA detector and a RF-20AXS fluorescence detector (Ex. 360 nm and Em. 430 nm) was used to characterize the structures of fluorophores as well. The mobile phase was a gradient of DI water and acetonitrile with 0-6 min 2% acetonitrile, 6-12 min 2%-30% acetonitrile, and 12-15 min 2% acetonitrile. The flow rate was 0.15 ml/min. Electrospray ionization mass spectroscopy (ESI-MS) was performed with a positive voltage of 4.5 kV and negative mode voltage −4.0 kV and a CDL temperature of 200° C. The analysis of the degradation products of BPLPs were conducted by immersing BPLPs in 1M K2CO3 solution at 37° C. for 24 hours. After degradation, the solutions were neutralized by 1N HCl solution to pH 7 and characterized by HPLC-MS as described above.
Fluorescence spectra were recorded by a Horiba FluoroMax-4 spectrofluorometer. All samples were measured at a concentration corresponding to an optical density of 0.1 in water and a slit size of 1 nm by 1 nm unless specified. Quantum yields were also determined on same spectrofluorometer by using a Quantum-φ integration sphere at samples' maximum excitation wavelength and at an increment of 0.3 nm. Photostability studies were done by continuously exciting samples at their maximum excitation wavelength and monitoring at the maximum emission wavelength.
Fluorescence spectra were recorded on a Horiba FluoroMax-4 spectrofluorometer (Horiba Scientific, Edison N.J.). All polymer and samples were characterized at a concentration of 2 wt % in 1,4-dioxane and a slit size of 1 nm by 1 nm unless otherwise specified. The fluorescence properties of small molecule dyes were also measure in 2 wt % DI water solutions at same conditions as polymer solutions. BPLPs were also degraded in 1M K2CO3 solution at 37° C. for 24 hours and then neutralized with 1N HCl solution to pH7. The resulting degradation solutions were subject to further PL characterizations. Quantum yields were also determined on the same spectrofluorometer by using a Quantum-φ integration sphere (Horiba Scientific, Edison N.J.) at the same concentration and slit size with the blank solvent as the reference. Photostability of small molecules and polymers were determined by monitoring the emission intensity decay at their max. Excitation and emission wavelengths over 3 hours of continuous lumination in the spectrofluorometer.
Absorbance Spectra were recorded on Tecan Infinite M200 Pro UV-vis spectroscopy, and fluorescence spectra were recorded on Horiba FluoroMax-4 fluorospectroscopy at concentrations below 0.1 O.D. unless otherwise indicated. Quantum Yields were measured on the Quantum φ Integrating Sphere accessory to the FluoroMax-4, while lifetime measurements were determined through the Time-Correlation Single Photon Counting (TCSPC) accessory to the FluroMax-4. TCSPC was utilized in conjunction with NanoLED pulsed diode light source with peak excitation wavelength at 352 nm and at 10,000 counts peak preset. Emission was collected at the fluorescence λmax, unless otherwise indicated. For all pH-dependence experiments, sample pH was adjusted with sulfuric acid or sodium hydroxide. For all chloride-dependent quenching experiments, magnesium chloride hexahydrate (Sigma Aldrich) was used.

Shifting (emission shifting with excitation wavelength)	SMILES
Yes	NCCN1C(=O)C=C(C(=O)O)CC1=O [CA-EDA]
Yes	O=C(O)CN1C(=O)C=C(C(=O)O)CC1=O [CA-Gly]

Same assay, conditions: Table III

SMILES	Φ (quantum yield) [%]	λem (maximum emission wavelength) [nm]	λex (maximum excitation wavelength) [nm]	ϵ (extinction coefficiency) [M⁻¹ cm⁻¹]
O=C(O)c1cc(=O)n2c(c1)sc1ccccc12 [CA-2-Aminothiolphenol]	98.5	439	396	877.8
O=C(O)C1=CC(=O)N(c2ccc(S)cc2)C(=O)C1 [CA-4-Aminothiolphenol]	14.1	437	396	19.6
N=C(N)NCCCC(C(=O)O)N1C(=O)C=C(C(=O)O)CC1=O (stereo not shown) [CA-Arginine]	15.5	451	382	11.6
NCCN1C(=O)C=C(C(=O)O)CC1=O [CA-EDA]	9.2	440	377	828.3
O=C(O)CN1C(=O)C=C(C(=O)O)CC1=O [CA-Gly]	39.0	434	357	12
CCCCCCCN1C(=O)C=C(C(=O)O)CC1=O [CA-Heptylamine]	13.5	424	356	4.7
NCCCCCCN1C(=O)C=C(C(=O)O)CC1=O [CA-Hexamethylenediamine]	11.5	426	357	9.4
O=C(O)c1cc2n(c(=O)c1)C(C(=O)O)CCS2 (stereo not shown) [CA-Homocysteine]	70.8	445	375	109.2
CC1(C)Sc2cc(C(=O)O)cc(=O)n2C1C(=O)O (stereo not shown) [CA-Penicillamine]	80.6	432	369	3180
O=C(O)C1=CC(=O)N(C(Cc2ccccc2)C(=O)O)C(=O)C1 (stereo not shown) [CA-Phenylalanine]	12.7	423	358	7.8
Nc1ccc(N2C(=O)C=C(C(=O)O)CC2=O)cc1 [CA-Phenylenediamine]	4.5	433	360	12.1
CC1Oc2cc(C(=O)O)cc(=O)n2C1C(=O)O (stereo not shown) [CA-Threonine]	78.6	436	386	418
O=C(O)C1=CC(=O)N(C(CC2=c3ccccc3=NC2)C(=O)O)C(=O)C1 (stereo not shown) [CA-Tryptophan]	5	445	386	14.6
O=C(O)C1=CC(=O)N(CCO)C(=O)C1 [CA-ethanolamine]	42.1	419	368	34.6
O=C(O)CCCN1C(=O)C=C(C(=O)O)CC1=O [CA-γ-Aminobutyric acid]	22.1	422	355	4.9
CC(C(=O)O)N1C(=O)CC(C(=O)O)CC1=O (stereo not shown) [TCA-Alanine]	0.2	423	355	6.1
O=C(O)C1CC(=O)N(C(CS)C(=O)O)C(=O)C1 (stereo not shown) [TCA-Cysteine]	54.2	431	366	11.6

Second part, the compound after the results:

Φ (quantum yield) [%]	λem (maximum emission wavelength) [nm]	λex (maximum excitation wavelength) [nm]	ϵ (extinction coefficiency) [M⁻¹ cm⁻¹]	SMILES
8.8	430	356	6.3	CC(CC(=O)O)N1C(=O)C=C(C(=O)O)CC1=O (stereo not shown) [CA-3-Aminobutanoic Acid]
23.8	440	378	35.5	NC(=O)CC(C(=O)O)N1C(=O)C=C(C(=O)O)CC1=O (stereo not shown) [CA-Asparagine]
19.7	427	356	6.8	O=C(O)CC(C(=O)O)N1C(=O)C=C(C(=O)O)CC1=O (stereo not shown) [CA-Aspartic Acid]
15	430	367	11.6	NC(CSSCC(C(=O)O)N1C(=O)C=C(C(=O)O)CC1=O)C(=O)O (stereo not shown) [CA-Cystine]
9.1	423	358	5.1	O=C(O)CCC(C(=O)O)N1C(=O)C=C(C(=O)O)CC1=O (stereo not shown) [CA-Glutamic Acid]
7.3	448	383	102.4	NC(=O)CCC(C(=O)O)N1C(=O)C=C(C(=O)O)CC1=O (stereo not shown) [CA-Glutamine]
17.2	430	357	5.6	CCC(C)C(C(=O)O)N1C(=O)C=C(C(=O)O)CC1=O (stereo not shown) [CA-Isoleucine]
8.8	423	359	6.2	CC(C)CC(C(=O)O)N1C(=O)C=C(C(=O)O)CC1=O (stereo not shown) [CA-Leucine]
8.6	431	359	11.4	NCCCCC(C(=O)O)N1C(=O)C=C(C(=O)O)CC1=O (stereo not shown) [CA-Lysine]
10.5	424	362	5.3	CSCCC(C(=O)O)N1C(=O)C=C(C(=O)O)CC1=O (stereo not shown) [CA-Methionine]
4.2	440	369	437.9	O=C(O)C1=CC(=O)N(C(CO)C(=O)O)C(=O)C1 (stereo not shown) [CA-Serine]
17.5	428	361	5.3	CC(C)C(C(=O)O)N1C(=O)C=C(C(=O)O)CC1=O (stereo not shown) [CA-Valine]

Same assay, conditions: representative CFDs, Table I

Max. Em. Wavelength [nm]	Max. Ex. Wavelength [nm]	Quantum Yield [%]	SMILES
440	377	9.2	NCCN1C(=O)C=C(C(=O)O)CC1=O [CA-EDA]
434	357	39.0	O=C(O)CN1C(=O)C=C(C(=O)O)CC1=O [CA-Gly]
